From article PMC5344956 (Cancer Chemotherapy and Pharmacology, 2017)

Legend:
[1] = Plasma pharmacokinetics of TRA, ponatinib and metabolites after a single oral 45-mg [14C]ponatinib dose
Method: The subject release criterion was defined as follows: the combined urine and fecal radioactivity excretion for two consecutive days should fall below 1% of the dose administered.
Detailed procedures on sample collection, storage, and shipment are described in Online Resource 1. […] Fecal homogenates were prepared by adding water (four times the feces weight) and homogenizing.
(§1) TRA analysis was carried out at ABC Laboratories. The radioactivity in plasma (duplicate per time point) and urine samples (triplicate per time point) was quantitated by direct counting in a Beckman LS6000SC or LS6500 liquid scintillation counter (PerkinElmer Life and Analytical Sciences, Boston, MA, USA). Whole blood (duplicate per time point) and fecal homogenate (triplicate per time point) samples were oxidized, and the resultant ^14CO2 was trapped in Carbosorb (Calgon Carbon Corporation, Pittsburgh, PA, USA) in combination with Permafluor, followed by liquid scintillation counting to determine the radioactivity. Individual samples were counted for 5 min for whole blood and fecal matrices, and 10 min for plasma and urine matrices. Predose blood, plasma, urine, and feces samples served as respective control samples to determine and subtract the background radioactivity in the analysis.
M14 was quantitated using a different LC/MS/MS method (Online Resource 2). The pharmacokinetic analysis was carried out using WinNonlin® v6.4 (Pharsight Corp., Mountain View, CA, USA).
Aliquots of 30 µl of calibration standards, quality controls, and incurred plasma samples were transferred into a 96-well plate. Then 150 µl of ice-cold acetonitrile containing 50 ng/ml of AP30376 (d6-AP24600, internal standard) were added. The 96-well plate was vortexed for 10 min and then centrifuged at 4750 rpm for 20 min at 4°C. 100 µl aliquots of the supernatants were transferred into another 96-well plate and the samples were analyzed by liquid chromatography tandem mass spectrometry.

human liver microsomes = test: In vitro metabolism with human liver microsomes and CYP-specific chemical inhibitors (data not shown); assay type: in vitro ADME; settings: CYP-specific chemical inhibitors
[2] = Excretion and mass balance in urine and feces; assay type: in vivo, human; settings: single oral administration
From the text: Six healthy male volunteers, 25–45 years of age, with a mean body weight of 83.3 kg (range 64.5–94.4) and a mean body mass index of 26.9 kg/m^2 (range 20.2–29.9) participated in the study. […] The subject release criterion was defined as follows: the combined urine and fecal radioactivity excretion for two consecutive days should fall below 1% of the dose administered.
Detailed procedures on sample collection, storage, and shipment are described in Online Resource 1. […] Urine and feces collected from each subject were pooled at predose and every 24 h thereafter. Fecal homogenates were prepared by adding water (four times the feces weight) and homogenizing.
as §1
All urine voided was collected and stored in containers at 5±3 °C until the collection interval was completed. Subjects voided in the morning prior to study drug administration.
Multiple collections of urine during each collection interval from each individual subject were pooled. The urine samples from each collection interval were well mixed, accurately weighed, and assessed for its pH. A 100 ml sample from each collection interval from each subject was aliquoted into a separately labeled container to be sent to ABC Laboratories for radioactivity analysis. An approximately 10 ml sample from each collection interval from each subject on day 8 and each day thereafter was used for TRA analysis at Celerion (Lincoln, NE). All urine samples were kept frozen at −80 ± 15 °C.
Stool collections began approximately 24 h prior to drug administration until the end of the postdose sampling period. The 24 h predose samples were used as control samples for the radioactivity analysis and metabolite profiling. Feces were collected daily (24 h collection periods) until subjects were discharged from the clinical research unit.
All fecal samples were collected in polypropylene containers; toilet paper was collected separately. The weight of each sample was recorded. Multiple collections of feces during each collection interval from each individual subject were pooled. The feces samples were thoroughly homogenized with water (4X the weight of the feces). A 100 g sample was aliquoted into a separately labeled container to be sent to ABC Laboratories for radioactivity analysis. An approximately 10 g sample from each collection interval from each subject on day 8 and each day thereafter was used for TRA analysis at Celerion. All fecal homogenate samples were kept frozen at −80 ± 15 °C.

[3] = Metabolite profiling of feces (HPLC-radiochromatography); assay type: in vivo, human; settings: 0–144 h pool; for % Distribution in matrix: % of fecal TRA
Method: One-gram samples of the fecal homogenates were transferred to 50-mL polypropylene tubes, extracted with 4 mL of methanol, and centrifuged (4500g). The resulting residues were extracted three more times (once with 2 mL of methanol and twice with 1 mL of methanol containing 1% formic acid) and centrifuged. All supernatants were combined and evaporated under nitrogen, and the residue was reconstituted with 0.5 mL of methanol, vortexed, sonicated, and centrifuged. A 0.010-mL aliquot of the supernatant was removed for determination of radioactivity, and the remainder of the supernatant was transferred to an HPLC vial and stored at −80 °C.
A Finnigan Surveyor HPLC system (Thermo Fisher Scientific Inc., San Jose, CA, USA), consisting of an LC pump plus an autosampler and a UV–Vis plus detector, was used mostly for profiling (except the post-24-h plasma samples, which were analyzed using a Dionex HPLC system). A Phenomenex® Gemini® C18, 5-μm, 3.0 × 100-mm column (Phenomenex Inc., Torrance, CA, USA) was used along with a C-12 guard column (4 × 2 mm). LC conditions were as follows: solvent A was 10 mM ammonium bicarbonate in water (pH 10.0) and solvent B was 100% methanol and the flow rate was 0.8 mL/min. The following gradient was employed (B%): 0–5 min (20%), 32 min (42%), 33 min (60%), 55 min (70%), 56–60 min (95%), and 62–70 min (20%).
Reconstituted solvent extracts (0.050–0.10 mL) of plasma, urine, or feces were injected onto the HPLC column. The post-column eluate was split after UV detection into two streams (0.64 and 0.16 mL/min). The 0.64-mL stream was diverted to a fraction collector (Gilson FX 204; Gilson Medical Electronics, Middleton, WI, USA) to be collected in 96-well plates at 0.16 min/well (ScintiPlates; PerkinElmer Life Sciences, Shelton, CT, USA), and the 0.16-mL stream was directed to the mass spectrometer. The solvent in the 96-well plates was removed at 40 °C using a Genevac evaporator (Genevac, Inc., Stone Ridge, NY, USA).
The radioactivity counts per minute (CPM) in each well was determined using a MicroBeta scintillation counter (PerkinElmer Life and Analytical Sciences). The resulting CPM vs. time data were processed using Excel (Microsoft Corporation, Seattle, WA, USA). The CPM in each well was background-subtracted (using the average CPM values of the blank region of the HPLC run). Radiochromatographic profiles were obtained by plotting the resulting net CPM values against time after injection. Radioactive peaks in the chromatographic profiles were identified, and the radioactivity in each peak was summed and reported as a percentage of TRA in the HPLC run.

[4] = male, human, in vivo, po, 45 mg

- plasma level at 144 h postdose ([1]; human plasma, 144 h postdose): at or below detectable limits
- AUC(0-t) [1, 4]: 3.48 µM·h
- Tmax [1, 4]: 5 h
- half-life [1, 4]: 27.4 h
- concentration at 144 h ([1]; male, human, plasma, oral, 45 mg): < 2.4 nM
- elimination pathway N-demethylation, share of dose [2]: 8.3%
- elimination pathway hydroxylation, share of dose [2]: 18.0%
- elimination pathway methylation, share of dose [2]: 8.4%
- elimination pathway amide bond hydrolysis, share of dose ([2]; estimated from 81% of urinary TRA and 5.4% of dose in urine): 4.4%
- % of total radioactive dose [3]: 20.5/2.8%
- % Distribution in matrix [3]: 23.7/3.2%
- % Distribution in matrix ([3]; listed as ponatinib): 23.7%
- % of total radioactive dose ([3]; listed as ponatinib): 20.5%
SMILES: Cc1ccc(C(=O)Nc2ccc(CN3CCN(C)CC3)c(C(F)(F)F)c2)cc1C#Cc1cnc2cccnn12.Cl [Ponatinib, 3-(imidazo[1,2-b]pyridazin-3-ylethynyl)-4-methyl-N-(4-((4-methylpiperazin-1-yl)methyl)-3-(trifluoromethyl)phenyl)benzamide hydrochloride]
- CYP enzymes that metabolize the compound (human liver microsomes): metabolized mostly by CYP3A4 and to a lesser extent by CYP2D6 and CYP2C8
